Assay results taken from US8999891B2, “Method for controlling weeds in turf” (Dow AgroSciences LLC, priority 2013, dated 2015).

Key:
[1] = test system: White Cover (TRFRE); experiment: Field study in turf, average % weed control; format: in vivo, Trifolium repens; conditions: 62 DAA, florasulam 5.2 g ai/ha, fluroxypyr 52.9 g ae/ha, 2,4-D 520 g ae/ha, alone or in the mixture
Description: (§1) Replicated applications were made to small plots (i.e. 5′×5′, 3′×10′) using a CO2 backpack sprayer. Florasulam SC (EF-1343), fluoroxypyr (Starane® Ultra) and 2,4-D (DMA® 4) are produced by Dow AgroSciences LLC, Indianapolis, Ind. Applications at each site were made at typical postemergent herbicide timing for that particular study location. Applications were generally timed for peak dandelion bloom in the northern cool-season turf market and throughout the year in the warm-season turf market where winter and summer annual and perennial weeds are targeted. Weed control evaluations were made as percent weed cover per plot and converted to percent control based on weed levels in the untreated control. Evaluations were made at various timing after application for eight to ten weeks.
(§2) [formula] A=observed efficacy of a first active ingredient at the same concentration as used in the mixture. B=observed efficacy of a second active ingredient B at the same concentration as used in the mixture. C=observed efficacy of a third active ingredient C at the same concentration as used in the mixture. The following abbreviations are used in the tables: g ai/ha=grams active ingredient per hectare g ae/ha=grams acid equivalent per hectare DAA=days after application.

[2] = test system: Ground Ivy (GLEHE); experiment: Field study in turf, average % weed control; format: in vivo, Glechoma hederacea
Description: as §1, §2

[3] = test system: Dandelion (TAROF); experiment: Field study in turf, average % weed control; format: in vivo, Taraxacum officinale; conditions: 55 DAA, florasulam 5.2 g ai/ha, fluroxypyr 52.9 g ae/ha, 2,4-D 520 g ae/ha, alone or in the mixture
Description: as §1, §2

[4] = test system: White Clover (TRFRE); experiment: Greenhouse post-emergence weed control, visual percent control; format: in vivo, Trifolium repens; conditions: 1 week after treatment, florasulam 0.001 g ai/ha, fluroxypyr 0.01 g ae/ha, 2,4-D 0.11 g ae/ha, alone or in the mixture, 0 = no control, 100 = complete kill
Description: Studies were applied post-emergence to broadleaf weeds reared from seed in 5″ square pots in 80% mineral/20% grit field soil. Stage of growth of species at application: EPHSU in the 3 to 5 leaf stage and TRFRE in the 3rd tri-foliate stage. Post-emergence trial design was a replicated block, one species per pot, 4 replicate pots per treatment. Post-emergence applications were made to the pot with a tracksprayer calibrated to 187 liters per hectare (L/ha), 40 pounds per square inch (PSI) at 1.9 miles per hour (mph) using an 8003E Teejet nozzle covering both soil and foliage. Trial was sub-irrigated daily. Active weed growth was maintained throughout the study period. Weed control of each species in the post-emergence study was assessed at 1, 2 and 3 weeks after treatment. Control was determined visually by comparing treated and untreated pots and scored on a 0 to 100 percent scale where 0 corresponds to no control and 100 corresponds to complete kill.
In the foregoing examples, the following equation was used to calculate the expected activity of mixtures containing three herbicidal active ingredients:
as §2

[5] = 28 DAA, florasulam 2.3 g ai/ha, fluroxypyr 26.5 g ae/ha, 2,4-D 260.6 g ae/ha alone (260.0 in the mixture)
[6] = 56 DAA, florasulam 5.2 g ai/ha, fluroxypyr 52.9 g ae/ha, 2,4-D 520 g ae/ha, alone or in the mixture

Row | Compound | Observed Average % Weed Control [1] [%] | Observed Average % Weed Control [2, 5] [%] | Observed Average % Weed Control [2, 6] [%] | Observed Average % Weed Control [3] [%] | Observed percent control [4] [%]
1 | O=C(O)COc1ccc(Cl)cc1Cl [2,4-D, (2,4-dichlorophenoxy)acetic acid] | 20.0 | 41.0 | 41.7 | 45.6 | 1.7
2 | COc1ncc(F)c2nc(S(=O)(=O)Nc3c(F)cccc3F)nn12 [Florasulam, 2′,6′,8-trifluoro-5-methoxy[1,2,4]triazolo[1,5-c]pyrimidine-2-sulfonanilide] | 23.8 | 0.0 | 0.0 | 25.0 | 10.3
3 | Nc1c(Cl)c(F)nc(OCC(=O)O)c1Cl [Fluroxypyr, [(4-amino-3,5-dichloro-6-fluoro-2-pyridinyl)oxy]acetic acid] | 31.3 | 0.0 | 0.0 | 14.3 | 35
